The values below come from patent US20250188044A1 (HARBIN MEDISAN PHARMACEUTICAL CO., LTD., priority 2021, published 2025).

Type in all cases: cell-based
One assay has as its target T1, PPARα (Homo sapiens, UniProt Q07869).
T1 construct: hPPARα (279aa-580aa); expressed in transfected cells; host or cells: Cos-7
T1 sequence (Q07869 167-468 limits assumed): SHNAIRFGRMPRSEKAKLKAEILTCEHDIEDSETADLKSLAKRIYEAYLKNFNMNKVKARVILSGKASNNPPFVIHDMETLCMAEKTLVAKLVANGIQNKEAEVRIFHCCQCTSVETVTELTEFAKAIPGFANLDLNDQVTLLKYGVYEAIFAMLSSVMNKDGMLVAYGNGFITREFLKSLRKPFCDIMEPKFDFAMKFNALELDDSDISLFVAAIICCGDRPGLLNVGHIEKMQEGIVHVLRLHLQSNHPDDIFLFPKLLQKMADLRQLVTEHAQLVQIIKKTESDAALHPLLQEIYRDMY
Briefly: Gal4-PPARα(LBD) reporter gene agonistic activity assay in Cos-7 cells. The note with it: for EC50: Cos-7 cells, Gal4-PPARα(LBD) reporter, 16 h, 100% = GW7647 10 nM; for agonistic activity for PPARα (EC50 level, in words): Cos-7 reporter assay. As for the experimental part:
(§1) Cos-7 cells (African green monkey kidney fibroblasts, commonly used tool cells) were cultured in a 10 cm cell culture dish in a DMEM complete medium containing 10% fetal bovine serum. When the cells grew to a density of about 70%, the medium was replaced with a fresh medium for later transfection. […] The plasmid working solution was then added to the cell culture dish for cell transfection. […] Test compounds were prepared into appropriate test concentrations with a complete medium and then added to the 96-well plate. […] 10 μL of lysate was pipetted into a white opaque 384-well plate, and then 10 μL of reporter gene assay buffer (purchased from Shanghai Beyotime Biological Tech. Co., Ltd.) was added. The bioluminescence was detected by using a multimode microplate reader, and the corresponding half maximal effective concentration (EC50) value was calculated according to the detection value.
A general note: In a reporter assay the amount or activity of a reporter protein is the signal.

The next assay deals with T2, PPARγ (Homo sapiens, UniProt P37231).
T2 construct: hPPARγ (281aa-554aa); expressed in transfected cells; host or cells: Cos-7
T2 sequence (P37231 232-505 limits assumed): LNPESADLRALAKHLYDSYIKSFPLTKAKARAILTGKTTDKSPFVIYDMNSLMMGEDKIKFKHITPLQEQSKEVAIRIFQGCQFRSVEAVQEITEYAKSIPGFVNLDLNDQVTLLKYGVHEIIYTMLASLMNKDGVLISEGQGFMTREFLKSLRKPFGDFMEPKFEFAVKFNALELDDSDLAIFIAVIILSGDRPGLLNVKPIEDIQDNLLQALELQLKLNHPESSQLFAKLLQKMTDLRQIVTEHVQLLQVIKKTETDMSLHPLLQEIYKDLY
As to the kind of experiment: Gal4-PPARγ(LBD) reporter gene agonistic activity assay in Cos-7 cells. As for the experimental part: as §1

Another assay concerns the target T3, PPARδ (Homo sapiens, UniProt Q03181).
T3 construct: expressed in transfected cells; host or cells: Cos-7
T3 sequence (Q03181 139-441 limits assumed): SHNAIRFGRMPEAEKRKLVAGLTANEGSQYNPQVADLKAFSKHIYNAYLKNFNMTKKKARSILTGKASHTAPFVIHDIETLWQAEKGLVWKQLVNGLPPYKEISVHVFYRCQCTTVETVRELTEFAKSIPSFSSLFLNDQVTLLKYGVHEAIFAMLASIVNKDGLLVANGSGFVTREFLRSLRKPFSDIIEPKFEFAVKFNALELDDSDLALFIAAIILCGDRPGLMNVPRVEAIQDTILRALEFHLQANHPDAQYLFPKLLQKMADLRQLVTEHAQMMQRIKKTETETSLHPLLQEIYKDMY
As to the kind of experiment: Gal4-PPARδ(LBD) reporter gene agonistic activity assay in Cos-7 cells. The settings on record: for agonistic activity for PPARδ (EC50 level, in words): Cos-7 reporter assay. As for the experimental part:
as §1

Setting [1] is: Cos-7 cells, Gal4-PPARδ(LBD) reporter, 16 h, 100% = GW501516 10 nM.
Where [2] appears, read: Cos-7 cells, Gal4-PPARγ(LBD) reporter, 16 h, 100% = Rosiglitazone 1 μM.

Read-outs that look alike come from different tables or passages of the source.

On to `Cc1cc(Cn2ncn(-c3ccccc3)c2=O)cc(C)c1OC(C)(C)C(=O)O` [Compound 63, 2-(2,6-Dimethyl-4-((5-oxo-4-phenyl-4,5-dihydro-1H-1,2,4-triazol-1-yl)methyl)phenoxy)-2-methylpropionic acid], for which the results for the EC50 on PPARα and at PPARγ were 1030 nM and 8650 nM, respectively.

Take `CCOc1ccc(-n2cnn(Cc3cc(C)c(OC(C)(C)C(=O)O)c(C)c3)c2=O)cc1` [Compound 69, 2-(4-((4-(4-Ethoxyphenyl)-5-oxo-4,5-dihydro-1H-1,2,4-triazol-1-yl)methyl)-2,6-dimethylphenoxy)-2-methylpropionic acid]: the EC50 (in general, the concentration at which the effect is half-maximal) stood at 33 nM on PPARα and 481 nM at PPARδ (setting [1]).

For `Cc1cc(Cn2ncn(-c3ccc(C(F)(F)F)cc3)c2=O)ccc1OC(C)(C)C(=O)O` [Compound 77, 2-Methyl-2-(2-methyl-4-((5-oxo-4-(4-(trifluoromethyl)phenyl)-4,5-dihydro-1H-1,2,4-triazol-1-yl)methyl)phenoxy)propionic acid], the EC50 amounted to 103 nM on PPARα and 132 nM on PPARδ (setting [1]).

Regarding `Cc1cc(Cn2ncn(-c3ccc(F)cc3)c2=O)cc(C)c1OC(C)(C)C(=O)O` [Compound 109, 2-(4-((4-(4-Fluorophenyl)-5-oxo-4,5-dihydro-1H-1,2,4-triazol-1-yl)methyl)-2,6-dimethylphenoxy)-2-methylpropionic acid], the concentration giving a half-maximal response (EC50) on PPARα turned out to be 645 nM; at PPARδ (setting [1]) it was 389 nM.

At PPARδ (setting [1]), `Cc1cc(Cn2ncn(-c3ccc(-c4ccccc4)cc3)c2=O)cc(C)c1OC(C)(C)C(=O)O` [Compound 117, 2-(4-((4-([1,1′-Biphenyl]-4-yl)-5-oxo-4,5-dihydro-1H-1,2,4-triazol-1-yl)methyl)-2,6-dimethylphenoxy)-2-methylpropionic acid] registered an EC50 of 135 nM.

`Cc1cc(Cn2ncn(-c3cccc(C(F)(F)F)c3)c2=O)cc(C)c1OC(C)(C)C(=O)O` [Compound 121, 2-(2,6-Dimethyl-4-((5-oxo-4-(3-(trifluoromethyl)phenyl)-4,5-dihydro-1H-1,2,4-triazol-1-yl)methyl)phenoxy)-2-methylpropionic acid]: at PPARδ (setting [1]), the concentration giving a half-maximal response (EC50) amounted to 39 nM.

For `CC(C)(Oc1ccc(Cn2ncn(-c3ccc(C(F)(F)F)cc3)c2=O)cc1F)C(=O)O` [Compound 123, 2-(2-Fluoro-4-((5-oxo-4-(4-(trifluoromethyl)phenyl)-4,5-dihydro-1H-1,2,4-triazol-1-yl)methyl)phenoxy)-2-methylpropionic acid], the EC50 at PPARα is 394 nM; at PPARδ (setting [1]), 664 nM.

For `CC(C)(Oc1c(F)cc(Cn2ncn(-c3ccc(C(F)(F)F)cc3)c2=O)cc1F)C(=O)O` [Compound 127, 2-(2,6-Difluoro-4-((5-oxo-4-(4-(trifluoromethyl)phenyl)-4,5-dihydro-1H-1,2,4-triazol-1-yl)methyl)phenoxy)-2-methylpropionic acid], a half-maximal effect at PPARδ (setting [1]) (EC50) was put at 586 nM.

On PPARδ (setting [1]), `CC(C)(Oc1ccc(Cn2ncn(-c3ccc(C(F)(F)F)cc3)c2=O)cc1)C(=O)O` [Compound 137, 2-(4-((4-(4-Trifluoromethylphenyl)-5-oxo-4,5-dihydro-1H-1,2,4-triazol-1-yl)methyl)phenoxy)-2-methylpropionic acid] came in with an EC50 of 1520 nM.

Consider `Cc1cc(Cn2ncn(-c3ccc(OC(F)(F)F)cc3)c2=O)cc(Cl)c1OC(C)(C)C(=O)O` [Compound 145, 2-(2-Chloro-6-methyl-4-((5-oxo-4-(4-(trifluoromethoxy)phenyl)-4,5-dihydro-1H-1,2,4-triazol-1-yl)methyl)phenoxy)-2-methylpropionic acid], for which, on PPARα, the EC50 is 8 nM and the “agonistic activity for PPARα (EC50 level, in words)” value (shortened to “agonistic activity for PPARα”) was “at nanomolar levels”. Moreover, on PPARδ, the EC50 came out at 29 nM and the “agonistic activity for PPARδ (EC50 level, in words)” value (“agonistic activity for PPARδ” below) is reported as “at nanomolar levels”.

As for `CC(C)(Oc1ccc(Cn2ncn(-c3ccc(C(F)(F)F)cc3)c2=O)cc1C(F)(F)F)C(=O)O` [Compound 147], the values for the EC50 on PPARδ (setting [1]) and at PPARγ (setting [2]) were 81 nM and 1800 nM, respectively.

Consider `CC(C)(Oc1c(Cl)cc(Cn2ncn(-c3ccc(OC(F)(F)F)cc3)c2=O)cc1Cl)C(=O)O` [Compound 149, 2-(2,6-Dichloro-4-((5-oxo-4-(4-(trifluoromethoxy)phenyl)-4,5-dihydro-1H-1,2,4-triazo 1-1-yl)methyl)phenoxy)-2-methylpropionic acid], for which the EC50 at PPARα was determined as 7 nM; on PPARδ (setting [1]), 225 nM.

Turning to `CC(C)(Oc1ccc(Cn2ncn(-c3ccc(OC(F)(F)F)cc3)c2=O)cc1F)C(=O)O` [Compound 151, 2-(2-Fluoro-4-((5-oxo-4-(4-(trifluoromethoxy)phenyl)-4,5-dihydro-1H-1,2,4-triazol-1-yl)methyl)phenoxy)-2-methylpropionic acid], the EC50 at PPARα was 220 nM; on PPARδ (setting [1]) it was 914 nM.

In the case of `CC(C)(Oc1ccc(Cn2ncn(-c3ccc(OC(F)(F)F)cc3)c2=O)cc1)C(=O)O` [Compound 153, 2-Methyl-2-(4-((5-oxo-4-(4-(trifluoromethoxy)phenyl)-4,5-dihydro-1H-1,2,4-triazol-1-yl)methyl)phenoxy)propionic acid], the EC50 on PPARα was found to be 498 nM; on PPARδ (setting [1]) it was 1680 nM.

`CC(C)(Oc1c(F)cc(Cn2ncn(-c3ccc(OC(F)(F)F)cc3)c2=O)cc1F)C(=O)O` [Compound 155, 2-(2,6-Difluoro-4-((5-oxo-4-(4-(trifluoromethoxy)phenyl)-4,5-dihydro-1H-1,2,4-triazol-1-yl)methyl)phenoxy)-2-methylpropionic acid]: the concentration giving a half-maximal response (EC50) at PPARα was 351 nM; on PPARδ (setting [1]) it was 1370 nM.

`[2H]C([2H])(c1cc(C)c(OC(C)(C)C(=O)O)c(C)c1)n1ncn(-c2ccc(C(F)(F)F)cc2)c1=O` [Compound 187, 2-(2,6-Dimethyl-4-((5-oxo-4-(4-(trifluoromethyl)phenyl)-4,5-dihydro-1H-1,2,4-triazol-1-yl)methyl-d2)phenoxy)-2-methylpropionic acid]: at PPARα, the EC50 was found to be 10 nM and the “agonistic activity for PPARα” value is given as “at nanomolar levels”. Further, at PPARδ, a half-maximal effect (EC50) was put at 7 nM and the “agonistic activity for PPARδ” value is reported as “at nanomolar levels”.

Take `CCc1cc(Cn2ncn(-c3ccc(C(F)(F)F)cc3)c2=O)cc(CC)c1OC(C)(C)C(=O)O` [Compound 191, 2-(2,6-Diethyl-4-((5-oxo-4-(4-(trifluoromethyl)phenyl)-4,5-dihydro-1H-1,2,4-triazol-1-yl)methyl)phenoxy)-2-methylpropionic acid]: on PPARα, the concentration giving a half-maximal response (EC50) turned out to be 44 nM and the “agonistic activity for PPARα” value is listed as “at nanomolar levels”. Besides, the midpoint of the response on PPARδ (setting [1]), the EC50, lay at 42 nM. Besides, the “agonistic activity for PPARδ” value on PPARδ is given as “at nanomolar levels”.

Turning to `Cc1cc(CCn2ncn(-c3ccc(C(F)(F)F)cc3)c2=O)cc(C)c1OC(C)(C)C(=O)O` [Compound 194, 2-(2,6-Dimethyl-4-(2-(5-oxo-4-(4-(trifluoromethyl)phenyl)-4,5-dihydro-1H-1,2,4-triazol-1-yl)ethyl)phenoxy)-2-methylpropionic acid], the EC50 on PPARδ (setting [1]) was found to be 38 nM; on PPARγ (setting [2]) it was 2020 nM. Also, the “agonistic activity for PPARδ” value on PPARδ is on record as “at nanomolar levels”.

Consider `Cc1cc(OCn2ncn(-c3ccc(C(F)(F)F)cc3)c2=O)cc(C)c1OC(C)(C)C(=O)O` [Compound 196, 2-(2,6-Dimethyl-4-((5-oxo-4-(4-(trifluoromethyl)phenyl)-4,5-dihydro-1H-1,2,4-triazol-1-yl)methoxy)phenoxy)-2-methylpropionic acid], for which the EC50 came out at 86 nM on PPARα and 56 nM at PPARδ (setting [1]).

With `Cc1cc(CCCn2ncn(-c3ccc(C(F)(F)F)cc3)c2=O)cc(C)c1OC(C)(C)C(=O)O` [Compound 200, 2-(2,6-Dimethyl-4-(3-(5-oxo-4-(4-(trifluoromethyl)phenyl)-4,5-dihydro-1H-1,2,4-triazol-1-yl)propyl)phenoxy)-2-methylpropionic acid], the EC50 at PPARα stood at 134 nM; at PPARδ (setting [1]), 212 nM.
